# Results published in publication PMC9959269, “Pyrrolyl and Indolyl α-γ-Diketo Acid Derivatives Acting as Selective Inhibitors of Human Carbonic Anhydrases IX and XII” (Pharmaceuticals, 2023).
# “And” between values parts separate entries of the source, which are not always exact repeats. Equal values may be shown once.
# Tests used:
# hCA I = biological target: T1, hCA I (Homo sapiens, UniProt P00915); assay: Stopped flow CO2 hydrase assay, hCA I inhibition; type: biochemical; details: stopped flow technique, means ± SEM of 3 different assays, recombinant hCA I; for Ki: read-out: Ki CA I
# T1 construct: made in house
# Protocol: (§1) An Applied Photophysics stopped-flow instrument has been used for assaying the CA catalyzed CO2 hydration activity. Phenol red (at a concentration of 0.2 mM) has been used as an indicator, working at the absorbance maximum of 557 nm, with 20 mM Hepes (pH 7.5) as buffer and 20 mM Na2SO4 (for maintaining constant the ionic strength), following the initial rates of the CA-catalyzed CO2 hydration reaction for a period of 10−100 s. The CO2 concentrations ranged from 1.7 to 17 mM for the determination of the kinetic parameters and inhibition constants. […] The uncatalyzed rates were determined in the same manner and subtracted from the total observed rates. Stock solutions of inhibitor (0.1 mM) were prepared in distilled−deionized water and dilutions up to 0.01 nM were performed thereafter with the assay buffer. Inhibitor and enzyme solutions were preincubated together for 15 min at room temperature before assay to allow for the formation of the E−I complex. The inhibition constants were obtained by nonlinear least-squares methods using PRISM 3 and the Cheng−Prusoff equation, as reported earlier, and they represent the mean from at least three different determinations. […] All hCA isoforms were recombinant ones obtained in-house as reported earlier.
# hCA II = biological target: T2, hCA II (Homo sapiens, UniProt P00918); assay: Stopped flow CO2 hydrase assay, hCA II inhibition; type: biochemical; details: stopped flow technique; means ± SEM of 3 different assays; recombinant hCA II; read-out: Ki CA II
# T2 construct: made in house
# Protocol: as §1
# hCA IX = biological target: T3, hCA IX (Homo sapiens, UniProt Q16790); assay: Stopped flow CO2 hydrase assay, hCA IX inhibition; type: biochemical; details: for Ki: stopped flow technique, means ± SEM of 3 different assays, recombinant hCA IX, read-out: Ki CA IX; for Selectivity for CA IX and XII over hCAs I and II: from Ki values
# T3 construct: made in house
# Protocol: as §1
# hCA XII = biological target: T4, hCA XII (Homo sapiens, UniProt O43570); assay: Stopped flow CO2 hydrase assay, hCA XII inhibition; type: biochemical; details: for Ki: stopped flow technique, means ± SEM of 3 different assays, recombinant hCA XII, read-out: Ki CA XII
# T4 construct: made in house
# Protocol: as §1
# [1] = test system: triple negative breast cancer MDA-MB231; assay: In vitro proliferation assay (sulforhodamine B), MDA-MB231; type: cell-based; details: Homo sapiens, MDA-MB-231, ± SD
# Protocol: (§2) The effects of selected compounds were also examined on the proliferation of four cell lines from different human solid tumors overexpressing hCA isoforms IX and XII: triple negative breast cancer MDA-MB231, colon carcinoma HT-29, tongue squamous carcinoma SCC-15 and pharynx squamous carcinoma FaDu. The cell lines were treated with 5, 10, 20, 50, 100 µM of each single compound for 24 and 48 h. In parallel, the proliferation assay was performed also on HaCaT, a human non-transformed keratinocyte cell line, with each compound used at the same concentrations and times already indicated. The median values from three different proliferation assays for each compound and for each cell line were calculated and their significance was evaluated.
# (§3) The following human tumor cell lines were utilized in the present study: triple-negative breast cancer MDA-MB231, colon carcinoma HT-29, tongue squamous cell carcinoma SCC-15 and pharynx squamous cell carcinoma FaDu. In addition, a spontaneously transformed keratinocyte cell line from human skin HaCaT was used as control of non-transformed cells. All cell lines were purchased from the American Type Culture Collection (Manassas, VA, USA).
# (§4) The cell lines were grown in RPMI 1640 medium supplemented with 10% fetal calf serum (FCS), 2 mM glutamine and 50 U/mL penicillin–streptomycin.
# (§5) All compounds were solubilized in dimethylsulfoxide (DMSO) (Sigma) for a 10 mM stock solution and utilized to final concentrations from 5 to 100 μM for 24 and 48 h. Control cells were treated with equivalent amounts of DMSO in every experiment.
# (§6) To determine cytotoxicity, a sulforhodamine B colorimetric assay was performed: 5 × 10^3 cells were plated on 96-well plates, grown for 24 h and treated with different concentrations of each compound for 24 and 48 h. Cells were then fixed with 50% trichloroacetic acid for 1 h at 4 °C and stained for 30 min (min) at room temperature (RT) with 0.4% sulforhodamine B in 1% acetic acid. Excess dye was removed by washing four times with 1% acetic acid. Protein-bound dye was dissolved in 10 mM Tris pH 10 and optical density was determined at 510 nm using a microplate reader.
# colon carcinoma HT-29 = assay: In vitro proliferation assay (sulforhodamine B), HT-29; type: cell-based; details: Homo sapiens, ± SD
# Protocol: as §2, §3, §4, §5, §6
# [2] = test system: pharynx squamous carcinoma FaDu; assay: In vitro proliferation assay (sulforhodamine B), FaDu; type: cell-based; details: Homo sapiens, ± SD
# Protocol: as §2, §3, §4, §5, §6
# [3] = test system: tongue squamous carcinoma SCC-15; assay: In vitro proliferation assay (sulforhodamine B), SCC-15; type: cell-based; details: Homo sapiens, ± SD
# Protocol: as §2, §3, §4, §5, §6
# HaCaT = assay: In vitro proliferation assay (sulforhodamine B), HaCaT non-transformed keratinocytes; type: cell-based, human; details: 24 and 48 h, no effect except at a very high concentration, above 100 µM
# Protocol: as §2
# The following human tumor cell lines were utilized in the present study: triple-negative breast cancer MDA-MB231, colon carcinoma HT-29, tongue squamous cell carcinoma SCC-15 and pharynx squamous cell carcinoma FaDu. […]
# To determine cytotoxicity, a sulforhodamine B colorimetric assay was performed: 5 × 10^3 cells were plated on 96-well plates, grown for 24 h and treated with different concentrations of each compound for 24 and 48 h. […] Protein-bound dye was dissolved in 10 mM Tris pH 10 and optical density was determined at 510 nm using a microplate reader.
# [4] = test system: MDA-MB231, HT-29, SCC-15 and FaDu tumor cell lines; assay: In vitro proliferation assay, four tumor cell lines taken together; type: cell-based, human; details: for Lowest concentration determining a significant decrease in alive cells: tumor cell lines, 24 h; for Antiproliferative activity (in words): four tumor cell lines, 5-100 µM, 24 and 48 h
# Protocol: as §2, §3, §4, §5, §6
# T4 sequence (O43570 25-354): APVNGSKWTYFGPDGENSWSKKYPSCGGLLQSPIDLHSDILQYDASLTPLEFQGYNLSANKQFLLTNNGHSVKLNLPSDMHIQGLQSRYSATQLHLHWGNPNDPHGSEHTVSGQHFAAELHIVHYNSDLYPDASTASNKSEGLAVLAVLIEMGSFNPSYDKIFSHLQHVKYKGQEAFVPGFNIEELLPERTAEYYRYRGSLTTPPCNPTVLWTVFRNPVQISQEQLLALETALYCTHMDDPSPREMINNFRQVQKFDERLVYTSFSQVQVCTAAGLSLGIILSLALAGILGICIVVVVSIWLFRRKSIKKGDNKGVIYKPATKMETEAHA
# T1 sequence (P00915 whole entry): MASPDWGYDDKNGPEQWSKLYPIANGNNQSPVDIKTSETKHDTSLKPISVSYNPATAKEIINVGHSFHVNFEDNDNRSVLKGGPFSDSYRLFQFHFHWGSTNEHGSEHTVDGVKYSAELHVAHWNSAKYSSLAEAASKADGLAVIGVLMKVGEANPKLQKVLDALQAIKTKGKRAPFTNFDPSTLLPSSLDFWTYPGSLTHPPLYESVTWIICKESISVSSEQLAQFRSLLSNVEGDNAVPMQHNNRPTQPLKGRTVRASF
SMILES,Ki (hCA I) [µM],Ki (hCA II) [µM],Ki (hCA IX),Ki (hCA XII),EC50 ([1]; 24 h treatment) [µM],EC50 ([1]; 48 h treatment) [µM],EC50 (colon carcinoma HT-29; 24 h treatment) [µM],EC50 (colon carcinoma HT-29; 48 h treatment) [µM],EC50 ([2]; 24 h treatment) [µM],EC50 ([2]; 48 h treatment) [µM],EC50 ([3]; 24 h treatment) [µM],EC50 ([3]; 48 h treatment) [µM],Effect on proliferation of HaCaT cells (HaCaT),Lowest concentration determining a significant decrease in alive cells [4] [µM],Selectivity for CA IX and XII over hCAs I and II (hCA IX),Antiproliferative activity (in words) [4],Ki CA I (hCA I),"Increase in activity against CA IX relative to diketobutanoic analogue 3a (hCA IX; ratio of Ki values, 5 vs 3a)","Increase in activity against CA XII relative to diketobutanoic analogue 3a (hCA XII; ratio of Ki values, 5 vs 3a)"
CCOC(=O)/C(O)=C/C(=O)c1cn(Cc2ccc(F)cc2)cc1-c1ccccc1 [Compound 4a],> 100,> 100,57.3 ± 2.8 µM,89.2 ± 5.2 µM,,,,,,,,,,,,,,,
CCOC(=O)/C(O)=C/C(=O)/C=C/c1cn(Cc2ccc(OC)cc2)c2ccccc12 [Compound 8],> 100,> 100,80.1 ± 5.3 µM,92 ± 6 µM,23 ± 1.6,17 ± 0.9,75 ± 8.8,44 ± 2.3,41 ± 3.3,18 ± 0.7,44 ± 4.1,21 ± 1.9,no significant effect,10,,,,,
CCOC(=O)/C(O)=C/C(=O)c1ccn(Cc2ccc(F)cc2)c1 [Compound 4b],> 100,> 100,> 100 µM,71.5 ± 4.3 µM,,,,,,,,,,,,,,,
Cc1ccc(Cn2cccc2/C=C/C(=O)/C=C(\O)C(=O)O)cc1 [Compound 1c],79 ± 3.9,44.4 ± 2.6,0.8 µM and 0.82 µM,0.9 ± 0.07 µM,85 ± 9.1,73 ± 5.5,115 ± 10.8,48 ± 4.1,59 ± 4.5,17 ± 0.9,96 ± 8.5,53 ± 5.9,,,two orders of magnitude selective,significant antiproliferative activity,,,
O=C(/C=C(\O)C(=O)O)/C=C/c1cccn1Cc1ccc(F)cc1 [Compound 1a],81.9 ± 6,14.6 ± 0.9,2 ± 0.1 µM,1 ± 0.1 µM,,,,,,,,,,,,,,,
O=C(/C=C(\O)C(=O)O)/C=C/c1cccn1Cc1ccccc1F [Compound 1b],89.6 ± 4.8,14 ± 0.8,2.5 ± 0.1 µM,2.2 ± 0.1 µM,,,92 ± 9.9,75 ± 8.2,98 ± 8.6,90 ± 9.3,,,,,,low efficacy,,,
O=C(/C=C(\O)C(=O)O)/C=C/c1cc(C(=O)c2ccccc2)c[nH]1 [Compound 1d],72.5 ± 5.1,38.7 ± 2,1.4 ± 0.1 µM,1.1 ± 0.1 µM,,,,,,,,,,,,,,,
O=C(O)/C(O)=C/C(=O)c1cn(Cc2ccc(F)cc2)cc1-c1ccccc1 [Compound 3a],> 100,77.6 ± 4.5,1.4 ± 0.1 µM,0.3 µM and 0.33 µM,,,,,,,,,,,,,inactive,,
O=C(O)/C(O)=C/C(=O)c1ccn(Cc2ccc(F)cc2)c1 [Compound 3b],50.9 ± 4.1,54.7 ± 2.9,18.4 ± 1.2 µM,7.9 ± 0.6 µM,,,,,,,,,,,,,,,
CCOC(=O)/C(O)=C/C(=O)/C=C/c1cccn1Cc1ccccc1F [Compound 2b],> 100,> 100,23.7 ± 1.6 µM,80.5 ± 6.1 µM,,,,,,,,,,,,,,,
CCOC(=O)/C(O)=C/C(=O)/C=C/c1cn(Cc2ccc(F)cc2)cc1-c1ccccc1 [Compound 6],> 100,> 100,43.1 ± 2.5 µM,89 ± 6.1 µM,,,,,,,,,,,,,,,
CCOC(=O)/C(O)=C/C(=O)/C=C/c1cccn1Cc1ccc(C)cc1 [Compound 2c],> 100,> 100,90.8 ± 4.6 µM,89.3 ± 5.3 µM,,,,,,,,,,,,,,,
O=C(/C=C(\O)C(=O)O)/C=C/c1cn(Cc2ccc(F)cc2)cc1-c1ccccc1 [Compound 5],> 100,62.5 ± 3.6,0.3 µM and 0.32 µM,0.2 µM and 0.24 µM,120 ± 15.7,105 ± 13.2,98 ± 11,21 ± 1.6,103 ± 11.4,23 ± 2.8,102 ± 9.7,58 ± 6.2,,,two orders of magnitude selective,significant antiproliferative activity,inactive,more than 4 times,about 1.5 times
CCOC(=O)/C(O)=C/C(=O)/C=C/c1cccn1Cc1ccc(F)cc1 [Compound 2a],> 100,> 100,90.1 ± 4.7 µM,83.6 ± 5.4 µM,,,,,,,,,,,,,,,
COc1ccc(Cn2cc(/C=C/C(=O)/C=C(\O)C(=O)O)c3ccccc32)cc1 [Compound 7],91.7 ± 7.5,36.5 ± 1.9,1.1 ± 0.1 µM,0.8 µM and 0.83 µM,21 ± 1.8,12 ± 1.1,47 ± 5,30 ± 2.8,51 ± 4.7,22 ± 1.2,48 ± 3.9,17 ± 0.8,no significant effect,10,,,,,
